# From US9408906B2, “Peptide particle formulation” (FLOW PHARMA, INC., priority 2010, dated 2016)
# Test system: Mature dendrocytes mixed with T-Lymphocytes
# Assay: Antigen presentation and T cell stimulation: production of human γ-IFN measured by ELISA
# Assay type: cell-based
# Conditions: human γ-IFN production after 2 hours incubation; HLA-A02 CMV-exposed donor PBMC-derived dendrocytes + T-lymphocytes; free peptide at 10^−9 M or 15 micron PLGA microspheres with approximately 2% NLVPMVATV
# Source text: Preparation of Dendritic Cells from peripheral blood mononuclear cells (PBMC). Frozen PBMC cells were obtained from Cellular Technology Limited, from volunteer donors known to have been exposed to CMV, and to be HLA-A02. The volunteer's antigen presenting cells were known to be capable of presenting HCMV pp 65 (NLVPMVATV) CMV epitope to T lymphocytes. Human PBMC (Peripheral Blood Mononuclear Cells) isolated from leukopacks and frozen in serum-free CTL-Cryo™ medium. These leukopacks were ethically collected from healthy donors tested for: HBsAg, HBcAb, HCV, HTLV I/II, and STS by serology; as well as HIV I, HCV, and WNV by NAT.
# Cells were thawed and plated at a concentration of 1×10^5 monocytes/well of a 24-well plate in medium supplemented with GM-CSF at a final concentration of 50 ng/ml and IL-4 at a final concentration of 100 ng/ml. Cells were maintained in culture at 37° C./5% CO2 for 6 days; and used with 8 days after that point. Optical microscopy confirmed maturation of monocytes to dendrocytes capable of phagocytosis of 15 micron PLGA microspheres.
# Presentation of antigen and stimulation of T cells was assessed by production of human γ-IFN, measured by ELISA. […] Production of γ-IFN was measured after 2 hours.
sequence,measurement,value
NLVPMVATV [free peptide],ELISA Optical Density,0.612
